In brackets after ≈: the same amount, converted by molar mass. Read-outs that look alike come from different tables or passages of the source.
How the values were obtained:
Strep.uberis = assay: Minimal bactericidal activity (MBC) in milk, field isolates; type: cell-based; conditions: Streptococcus uberis
Excerpt: (§1) The activity of some of said nitrofuryl quinolines derivatives against Strep.uberis and Stap.Aureus in milk has been compared with the activity of some of the compounds so far utilised in the treatment of bovine mastitis. The results are shown in Table I. (The nitrofuryl quinoline derivatives have general formula [drawing 1] the meaning of R, A, R', B, Y, X and Z being given in the Table. R1 =O whenever indicated then the N-oxide is concerned; NF stands for nitrofuryl)
(§2) Minimal Bactericidal/Activity (MBC) of representative Nitrofuryl
(§3) in mcg/ml in milk at pH 7.2 - 7.4. Versus Standards (Field

Staph.Aureus = assay: as above; type: cell-based; conditions: Staphylococcus aureus
Excerpt: as §1, §2, §3

[1] = in milk at pH 7.2 - 7.4, field isolate 60B, read-out: Minimal Bactericidal Activity (MBC), Strep.uberis 60B
[2] = in milk at pH 7.2 - 7.4, field isolate 127A, read-out: Minimal Bactericidal Activity (MBC), Strep.uberis 127A
[3] = in milk at pH 7.2 - 7.4, field isolate 2337, read-out: Minimal Bactericidal Activity (MBC), Staph.Aureus 2337
[4] = in milk at pH 7.2 - 7.4, field isolate 2372, read-out: Minimal Bactericidal Activity (MBC), Staph.Aureus 2372
[5] = read-out: Minimal Bactericidal Activity (MBC), Strep.uberis 60B
[6] = read-out: Minimal Bactericidal Activity (MBC), Strep.uberis 127A
[7] = read-out: Minimal Bactericidal Activity (MBC), Staph.Aureus 2337
[8] = read-out: Minimal Bactericidal Activity (MBC), Staph.Aureus 2372

SMILES	MBC (Strep.uberis; [1]) [µg/mL]	MBC (Strep.uberis; [2]) [µg/mL]	MBC (Staph.Aureus; [3]) [µg/mL]	MBC (Staph.Aureus; [4]) [µg/mL]	MBC (Strep.uberis; [5]) [µg/mL]	MBC (Strep.uberis; [6]) [µg/mL]	MBC (Staph.Aureus; [7]) [µg/mL]	MBC (Staph.Aureus; [8]) [µg/mL]
O=C(N[C@H](CO)[C@H](O)c1ccc([N+](=O)[O-])cc1)C(Cl)Cl [Chloramphenicol, reference compound]	50 (≈ 155 µM)	> 400	> 50	> 50	–	–	–	–
O=C(O)c1cc(-c2ccc([N+](=O)[O-])o2)c2ccccc2n1 [Compound 2, 4-(5-nitrofuryl)-quinaldinic acid]	0.12 (≈ 0.422 µM)	1 (≈ 3.52 µM)	1 (≈ 3.52 µM)	0.5 (≈ 1.76 µM)	–	–	–	–
O=[N+]([O-])c1ccc(-c2ccc3ccccc3n2)o1 [Compound 3]	> 10	> 10	> 10	> 10	–	–	–	–
Cc1cc(-c2ccc([N+](=O)[O-])o2)[n+]([O-])c2ccccc12 [Compound 4]	> 10	> 10	10 (≈ 37 µM)	> 10	–	–	–	–
Cc1cc(-c2ccc([N+](=O)[O-])o2)c2ccccc2n1 [Compound 5]	10 (≈ 39.3 µM)	10 (≈ 39.3 µM)	> 10	> 10	–	–	–	–
Cc1cc(-c2ccc([N+](=O)[O-])o2)c2ccccc2[n+]1[O-] [Compound 6]	5 (≈ 18.5 µM)	5 (≈ 18.5 µM)	5 (≈ 18.5 µM)	5 (≈ 18.5 µM)	–	–	–	–
CCc1ccc2nc(C)cc(-c3ccc([N+](=O)[O-])o3)c2c1 [Compound 7]	> 10	> 10	> 10	> 10	–	–	–	–
CC(=O)Oc1ccc2c(-c3ccc([N+](=O)[O-])o3)cc(C)nc2c1 [Compound 8]	0.25 (≈ 0.801 µM)	10 (≈ 32 µM)	5 (≈ 16 µM)	5 (≈ 16 µM)	–	–	–	–
COc1ccc2c(-c3ccc([N+](=O)[O-])o3)cc(C)nc2c1 [Compound 9]	10 (≈ 35.2 µM)	5 (≈ 17.6 µM)	5 (≈ 17.6 µM)	5 (≈ 17.6 µM)	–	–	–	–
CCc1cccc2c(-c3ccc([N+](=O)[O-])o3)cc(C)nc12 [Compound 10]	> 10	> 10	> 10	> 10	–	–	–	–
O=[N+]([O-])c1ccc(-c2ccnc3ccccc23)o1 [Compound 11]	10 (≈ 41.6 µM)	> 10	> 10	> 10	–	–	–	–
CCc1cc(-c2ccc([N+](=O)[O-])o2)c2cc(C)ccc2n1 [Compound 12]	> 10	> 10	> 10	> 10	–	–	–	–
O=[N+]([O-])c1ccc(-c2cc(CO)nc3ccccc23)o1 [Compound 13]	5 (≈ 18.5 µM)	> 10	10 (≈ 37 µM)	5 (≈ 18.5 µM)	–	–	–	–
O=[N+]([O-])c1ccc(-c2cc(C(Br)(Br)Br)nc3ccccc23)o1 [Compound 14]	5 (≈ 10.2 µM)	5 (≈ 10.2 µM)	10 (≈ 20.4 µM)	> 10	–	–	–	–
O=[N+]([O-])c1ccc(-c2cc(C=NO)nc3ccccc23)o1 [Compound 15]	1 (≈ 3.53 µM)	1 (≈ 3.53 µM)	1 (≈ 3.53 µM)	1 (≈ 3.53 µM)	–	–	–	–
CCOc1ccc2c(-c3ccc([N+](=O)[O-])o3)cc(C(=O)O)nc2c1 [Compound 17]	0.03 (≈ 0.0914 µM)	1 (≈ 3.05 µM)	1 (≈ 3.05 µM)	0.5 (≈ 1.52 µM)	–	–	–	–
O=C(c1cc(-c2ccc([N+](=O)[O-])o2)c2ccccc2n1)N1CCOCC1 [Compound 18]	5 (≈ 14.2 µM)	> 10	> 10	10 (≈ 28.3 µM)	–	–	–	–
CCc1ccc2c(c1)c(-c1ccc([N+](=O)[O-])o1)cc(C)[n+]2[O-] [Compound 20]	> 10	> 10	5 (≈ 16.8 µM)	5 (≈ 16.8 µM)	–	–	–	–
Cc1ccc2c(-c3ccc([N+](=O)[O-])o3)cc(C)[n+]([O-])c2c1 [Compound 21]	5 (≈ 17.6 µM)	10 (≈ 35.2 µM)	5 (≈ 17.6 µM)	10 (≈ 35.2 µM)	–	–	–	–
COc1ccc2c(-c3ccc([N+](=O)[O-])o3)cc(C)[n+]([O-])c2c1 [Compound 23]	5 (≈ 16.7 µM)	5 (≈ 16.7 µM)	5 (≈ 16.7 µM)	5 (≈ 16.7 µM)	–	–	–	–
CCc1cc(-c2ccc([N+](=O)[O-])o2)c2ccc(OC)cc2[n+]1[O-] [Compound 24]	> 10	> 10	> 10	10 (≈ 31.8 µM)	–	–	–	–
COc1ccc2c(-c3ccc([N+](=O)[O-])o3)cc(C(=O)O)[n+]([O-])c2c1 [Compound 25]	0.25 (≈ 0.757 µM)	0.5 (≈ 1.51 µM)	1 (≈ 3.03 µM)	5 (≈ 15.1 µM)	–	–	–	–
Cc1ccc2nc(C)cc(-c3ccc([N+](=O)[O-])o3)c2c1 [Compound 27]	10 (≈ 37.3 µM)	10 (≈ 37.3 µM)	10 (≈ 37.3 µM)	10 (≈ 37.3 µM)	–	–	–	–

SMILES	MBC (Strep.uberis; [1]) [µg/mL]	MBC (Strep.uberis; [2]) [µg/mL]	MBC (Staph.Aureus; [3]) [µg/mL]	MBC (Staph.Aureus; [4]) [µg/mL]	MBC (Strep.uberis; [5]) [µg/mL]	MBC (Strep.uberis; [6]) [µg/mL]	MBC (Staph.Aureus; [7]) [µg/mL]	MBC (Staph.Aureus; [8]) [µg/mL]
Cc1cc(-c2ccc([N+](=O)[O-])o2)c2ccc(Cl)cc2n1 [Compound 28]	> 10	> 10	> 10	> 10	–	–	–	–
Cc1ccc2c(c1)c(-c1ccc([N+](=O)[O-])o1)cc(C)[n+]2[O-] [Compound 29]	5 (≈ 17.6 µM)	5 (≈ 17.6 µM)	5 (≈ 17.6 µM)	5 (≈ 17.6 µM)	–	–	–	–
CCc1cc(-c2ccc([N+](=O)[O-])o2)c2ccccc2[n+]1[O-] [Compound 30]	5 (≈ 17.6 µM)	> 10	5 (≈ 17.6 µM)	10 (≈ 35.2 µM)	–	–	–	–
CCc1ccc2nc(CC)cc(-c3ccc([N+](=O)[O-])o3)c2c1 [Compound 31]	> 10	> 10	> 10	> 10	–	–	–	–
CCc1ccc2c(c1)c(-c1ccc([N+](=O)[O-])o1)cc(CC)[n+]2[O-] [Compound 32]	1 (≈ 3.2 µM)	> 10	> 10	> 10	–	–	–	–
CC(=O)OCc1cc(-c2ccc([N+](=O)[O-])o2)c2ccccc2n1 [Compound 33]	> 10	> 10	> 10	> 10	–	–	–	–
COc1cc2nc(C)cc(-c3ccc([N+](=O)[O-])o3)c2cc1N [Compound 34]	0.25 (≈ 0.835 µM)	1 (≈ 3.34 µM)	5 (≈ 16.7 µM)	5 (≈ 16.7 µM)	–	–	–	–
Cc1cc(-c2ccc([N+](=O)[O-])o2)c2ccc(N)c(C)c2n1 [Compound 35]	5 (≈ 17.6 µM)	10 (≈ 35.3 µM)	5 (≈ 17.6 µM)	5 (≈ 17.6 µM)	–	–	–	–
CNN=Cc1cc(-c2ccc([N+](=O)[O-])o2)c2ccccc2n1 [Compound 36]	5 (≈ 16.9 µM)	5 (≈ 16.9 µM)	> 10	5 (≈ 16.9 µM)	–	–	–	–
COc1cc2nc(C)cc(-c3ccc([N+](=O)[O-])o3)c2cc1OC [Compound 37]	5 (≈ 15.9 µM)	10 (≈ 31.8 µM)	10 (≈ 31.8 µM)	5 (≈ 15.9 µM)	–	–	–	–
CCOc1ccc2c(-c3ccc([N+](=O)[O-])o3)cc(C=NO)nc2c1 [Compound 38]	5 (≈ 15.3 µM)	10 (≈ 30.6 µM)	10 (≈ 30.6 µM)	5 (≈ 15.3 µM)	–	–	–	–
COc1cc2c(-c3ccc([N+](=O)[O-])o3)cc(C)[n+]([O-])c2cc1OC [Compound 39]	0.25 (≈ 0.757 µM)	1 (≈ 3.03 µM)	10 (≈ 30.3 µM)	0.5 (≈ 1.51 µM)	–	–	–	–
CCc1cc(-c2ccc([N+](=O)[O-])o2)c2cc(C)c(C)cc2[n+]1[O-] [Compound 40]	5 (≈ 16 µM)	10 (≈ 32 µM)	5 (≈ 16 µM)	5 (≈ 16 µM)	–	–	–	–
O=[N+]([O-])c1ccc(-c2cc[n+]([O-])c3ccccc23)o1 [Compound 41]	5 (≈ 19.5 µM)	10 (≈ 39 µM)	10 (≈ 39 µM)	5 (≈ 19.5 µM)	–	–	–	–
CCCOc1ccc2c(-c3ccc([N+](=O)[O-])o3)cc(C)[n+]([O-])c2c1 [Compound 42]	5 (≈ 15.2 µM)	5 (≈ 15.2 µM)	10 (≈ 30.5 µM)	5 (≈ 15.2 µM)	–	–	–	–
CC[C@H]1OC(=O)[C@H](C)[C@@H](O[C@H]2C[C@@](C)(OC)[C@@H](O)[C@H](C)O2)[C@H](C)[C@@H](O[C@@H]2O[C@H](C)C[C@H](N(C)C)[C@H]2O)[C@](C)(O)C[C@@H](C)C(=O)[C@H](C)[C@@H](O)[C@]1(C)O [Erythremycin, reference compound]	0.39 (≈ 0.531 µM)	3.12 (≈ 4.25 µM)	0.78 (≈ 1.06 µM)	6.25 (≈ 8.52 µM)	–	–	–	–
O=C1OC(CN2CCOCC2)CN1/N=C/c1ccc([N+](=O)[O-])o1 (stereo not drawn) [Furaltadone, reference compound]	1 (≈ 3.08 µM)	> 10	10 (≈ 30.8 µM)	10 (≈ 30.8 µM)	–	–	–	–
O=C1OCCN1/N=C/c1ccc([N+](=O)[O-])o1 [Furazolidone, reference compound]	10 (≈ 44.4 µM)	> 10	> 10	> 10	–	–	–	–
NC[C@H]1O[C@H](O[C@H]2[C@H](O)[C@@H](O[C@H]3O[C@H](CO)[C@@H](O)[C@H](N)[C@H]3O)[C@H](N)C[C@@H]2N)[C@H](O)[C@@H](O)[C@@H]1O [Kanamycin, reference compound]	–	–	–	–	100 (≈ 206 µM)	100 (≈ 206 µM)	12.5 (≈ 25.8 µM)	12.5 (≈ 25.8 µM)
CN(C)[C@@H]1C(=O)C(C(N)=O)=C(O)[C@@]2(O)C(=O)C3=C(O)c4c(O)cccc4[C@@](C)(O)[C@H]3[C@H](O)[C@@H]12 [Oxytetracyclin, reference compound]	–	–	–	–	0.78 (≈ 1.69 µM)	> 50	25 (≈ 54.3 µM)	50 (≈ 109 µM)
CC1(C)S[C@@H]2[C@H](NC(=O)Cc3ccccc3)C(=O)N2[C@H]1C(=O)O [Penicillin G, reference compound]	0.06 (≈ 0.179 µM)	1.56 (≈ 4.67 µM)	> 50	> 50	–	–	–	–
CO[C@H]1/C=C/O[C@@]2(C)Oc3c(C)c(O)c4c(O)c(cc(O)c4c3C2=O)NC(=O)/C(C)=C\C=C\[C@H](C)[C@H](O)[C@@H](C)[C@@H](O)[C@@H](C)[C@H](OC(C)=O)[C@@H]1C [Rifamycin, reference compound]	3.12 (≈ 4.47 µM)	> 50	0.12 (≈ 0.172 µM)	0.12 (≈ 0.172 µM)	–	–	–	–

From patent US4070469A, “Compound for the treatment of bovine mastitis” (priority 1975, dated 1978)
